Data taken from patent US9320810B2, “HMGN2 peptides and related molecules that selectively home to tumor blood vessels and tumor cells” (Sanford-Burnham Medical Research Institute, priority 2002, dated 2016).
Where no end group is shown, it is not given here.

Tests used:
[1] = system: human bone marrow mononuclear cells; experiment: Flow cytometry of fluorescein-labeled peptide binding to human bone marrow mononuclear cells; assay type: cell-based; settings: FIG. 4, fluorescent peptide
Description: Fluorescein-labeled SEQ ID NO: 9 or control peptide SEQ ID NO: 13 (2 μM) were incubated with gradient-depleted bone marrow cells for one hour at 4° C. and analyzed in a flow cytometer. […] The SEQ ID NO: 9-positive cells were the size of lymphocytes, agranular, CD45-positive and mostly CD34-negative, a marker profile similar to that of the lineage-depleted murine bone marrow cells used in the in vitro phage selection.
Flow cytometry was performed as follows. Human bone marrow specimens represented excess material from samples collected for diagnostic purposes from adults with hematological malignancies following informed consent. A total of 2 ml of bone marrow was aspirated from the posterior iliac crest and stored in a citrate anticoagulant. Mononuclear cells were isolated by gradient centrifugation (Ficoll-Paque PLUS; Amersham Pharmacia Biotech; Uppsala, Sweden) and incubated in RPMI-1640 media supplemented with 10% FBS for two hours at 37° C. Cells subsequently were transferred to 4° C. and incubated with 1-2 μM fluorescein-conjugated peptide for 45 minutes before staining with PerCP- or PE-conjugated CD34 and CD45 antibodies (Beckton Dickinson Biosciences; San Jose, Calif.) for 30 minutes. Samples were analyzed with either a FACSCalibur or LSR flow cytometer (Beckton Dickinson Biosciences); 100,000 events were collected.

[2] = system: HL-60 xenograft tumors; experiment: Tissue localization of intravenously injected fluorescein-conjugated peptide, HL-60 xenograft mice; assay type: in vivo, mouse; settings: tail vein
Description: To study peptide localization, fluorescein-conjugated SEQ ID NO: 9 or ARALPSQRSR (SEQ ID NO: 13) was injected into the tail vein of mice bearing HL-60 or MDA-MB-435 xenografts. Peptide injection was followed 10 minutes later by injection of biotinylated tomato lectin, a marker of the vasculature. After another five minutes, mice were perfused through the heart with fixative solution, and the organs dissected, sectioned and stained with streptavidin-AlexaFluor 594. Slides were counter-stained with DAPI and examined under an inverted fluorescent microscope.
As shown in FIGS. 3A and G-J, fluorescence predominantly localized to nuclei, with most of the tumor cells containing fluorescence positioned close to blood vessels. […] In some microscopic fields, SEQ ID NO: 9 fluorescence essentially was limited to the endothelial cells, clearly illustrating the expression of peptide SEQ ID NO: 9 within endothelial cells and their nuclei (see FIG. 3F).
Histological analyses were performed as follows. […] Biotin-conjugated lectin was detected with streptavidin-Alexa 594 (Molecular Probes; Eugene, Oreg.); the slides were mounted with Vectashield-DAPI (Vector Laboratories; Burlingame, Calif.), and examined under an inverted fluorescent microscope.

[3] = system: mitochondrial membranes; settings: cited from earlier work
[4] = system: HL-60 cells; experiment: Phage binding to cultured HL-60 cells in vitro; assay type: cell-based, human; settings: phage-displayed HMGN1 exon 3 sequence
Description: (§1) In particular, about 1000 times more SEQ ID NO:5-displaying phage than non-recombinant T7 phage bound to cultured HL-60 or MDA-MB-435 cells in vitro. Similarly, SEQ ID NO:5-displaying also bound cell suspensions prepared from HL-60 tumors with a 1000-fold specificity relative to control T7 phage.
The phage binding assay was performed essentially as follows. Attachment of phage to cells was quantified by incubating 1×10^8 pfu of phage displaying SEQ ID NO: 9 for 60 minutes with 1×10^6 HL-60 cells at 4° C. in Tris-buffered saline with 1 mM Ca^+2 and 1 mM MgCl2. Bound phage were rescued after four washes with phosphate-buffered saline by adding 1 ml of bacteria for 7 minutes at room temperature. Bound phage were quantified by plating and counting pfu.
Binding of SEQ ID NO: 9-displaying phage to tumor cells was inhibited by free SEQ ID NO: 9 peptide in a dose dependent fashion. […] In contrast, background binding of non-recombinant phage was unaffected by free peptide. Specificity of cell binding by peptide SEQ ID NO: 9 was further confirmed by comparing HL-60 cell binding of phage expressing the HMGN2 exon 3 sequence PQRRSARLSA (SEQ ID NO: 11) to binding with phage expressing the homologous HMGN1 exon 3 sequence PKRRSARLSA (SEQ ID NO: 12).

[5] = system: primary cells obtained from HL-60 xenograft tumors; experiment: Phage binding to primary cells obtained from HL-60 xenograft tumors; assay type: cell-based, human; settings: phage-displayed
Description: as §1
Phage displaying a set of sequences corresponding to fragments of the amino-terminal portion of HMGN2 (SEQ ID NO: 5) were constructed to localize the region responsible for cell binding and in vivo homing. Fragments were designed to follow the exon/intron boundaries of the HMGN2 gene. Inserts encoding the indicated fragments were amplified from the full length HMGN2 phage clone by PCR, purified, digested and directionally cloned into the T7 415-1 and 10-3 vectors. Phage were packaged, amplified and sequenced according to the manufacturer's instructions. Phage preparations were then tested for binding to primary cells obtained from HL-60 xenograft tumors. After a 1 hour incubation at 4° C., cells were washed, and bound phage quantified. […] Furthermore, phage displaying the N-terminal portion of the active fragment SEQ ID NO: 9, which corresponds to exon 3 of the HMGN2 gene, were prepared. These phage expressing the sequence PQRRSARLSA (SEQ ID NO: 11) bound to tumor cells 90-fold more than non-recombinant phage.

With “ARALPSQRSR (not fully specified (N-terminus); also: fluorescein label) [SEQ ID NO: 13, fluorescein-labeled scrambled exon 3 control peptide]” the “number of cells in lower right quadrant (FACS)” value [1] was 1, the “percentage of cells in lower right quadrant (FACS)” value [1] was 0.0 and the “fluorescence in tumor tissue” value ([2]; fluorescein-conjugated peptide, about 15 minutes circulation) was “essentially undetectable in other tissues, including the HL-60 tumors”. For the same substance, the fluorescence in kidneys ([2]; fluorescein-labeled peptide, non-specific uptake) was “diffuse fluorescence accumulated in proximal tubules of kidneys”.

For “D(KLAKLAK)2: antimicrobial, pro-apoptotic peptide”, the “concentration inducing marked mitochondrial swelling” value [3] is given as 10 µM.

With PKRRSARLSA [SEQ ID NO: 12] the “reduction of HL-60 cell binding relative to HMGN2 phage expressing SEQ ID NO: 11” value [4] was 90%.

With PQRRSARLSA [SEQ ID NO: 11] the “binding to tumor cells relative to non-recombinant phage” value [5] was 90 fold.
